# Measured values taken from patent US5470866A, “Method for the conversion of cephalomannine to taxol and for the preparation of n-acyl analogs of taxol” (Virginia Polytechnic Institute and State University, priority 1994, dated 1995).
# Tests used:
# [1] = system: P-388 lymphocytic leukemia cells; assay: cell culture assay using P-388 lymphocytic leukemia cells (cytotoxicity of N-debenzoyl-N-acyltaxols); format: cell-based; conditions: Mus musculus, P388; P-388 cell culture; taxol reference; read-out: Absolute ED50
# Method: For details of the cell culture assay, see Abbott, B. J., "Protocol 14 of Instruction 275," National Cancer Institute, National Institutes Of Health, Jan. 24, 1978. N-acyltaxol analogs are important analogs of taxol for anticancer treatment. The present invention provides a simple way of preparing such analogs from taxol or cephalomannine without removing the C-13 side-chain.
# *Cytotoxicity is recorded as ED50 value relative to taxol determined
# in the same assay. Absolute ED50 of taxol is approximately 0.03
# [2] = in some assays; reported in literature; cited from earlier work
compound,measurement,setting,value
CC(=O)O[C@H]1C(=O)[C@@]2(C)[C@H]([C@H](OC(=O)c3ccccc3)[C@]3(O)C[C@H](OC(=O)[C@H](O)[C@@H](NC(=O)c4ccccc4)c4ccccc4)C(C)=C1C3(C)C)[C@]1(OC(C)=O)CO[C@@H]1C[C@@H]2O [taxol],IC50,[1],~0.03 µg/mL
CC(=O)O[C@@]12CO[C@@H]1C[C@H](O)[C@@]1(C)C(=O)[C@H](O)C3=C(C)[C@@H](OC(=O)[C@H](O)[C@@H](NC(=O)OC(C)(C)C)c4ccccc4)C[C@@](O)([C@@H](OC(=O)c4ccccc4)[C@H]21)C3(C)C [taxotere],activity relative to taxol,[2],approximately twice as active as taxol
